Test results from patent US7462642B2, “Anti-cancer combinations” (Cancer Research Technology Limited, priority 2003, dated 2008).
“Also recorded” adds a separate entry of the source. Read-outs that look alike come from different tables or passages of the source.

Columns and labels:
[1] = test system: tumours or human tumour xenografts; conditions: preclinical studies; cited from earlier work
[2] = test system: human tumours; conditions: Phase I clinical trials; well-tolerated doses; cited from earlier work
[3] = DMXAA plasma pharmacokinetic studies (HPLC assay); assay type: in vivo, mice
Protocol: (§1) DMXAA was synthesized as the sodium salt (Rewcastle et al (1990) Journal of National Cancer Institute 82:528-529). DMXAA sodium salt was dissolved in sterile water and 25 mg/kg in a volume of 0.1 ml per 10 g body weight was injected intraperitoneally (i.p.) into mice.
Diclofenac (Sigma) was dissolved in dimethylsulphoxide, and was injected i.p. into mice in a volume of 25 μl per 10 g body weight. The required dose of diclofenac was injected concurrently with DMXAA.

[4] = test system: colon 38 tumours; assay: Tumour growth delay assay; assay type: in vivo, C57B1/6 mice
Protocol: C57B1/6 mice from the Animal Resource Unit, University of Auckland, were bred and housed under conditions of constant temperature and humidity, with sterile bedding and food, according to institutional ethical guidelines. All mice were aged between 8 and 12 weeks.
as §1
Diclofenac (Sigma) was dissolved in dimethylsulphoxide, and was injected i.p. into mice in a volume of 25 μl per 10 g body weight. […]
Colon 38 tumour fragments (˜1 mm^3) were implanted subcutaneously (s.c.) in the left flank of anaesthetized (sodium pentobarbital, 81 mg/kg) mice. […] Tumour-bearing mice were treated with drugs according to the administration schedule described before, and the tumours measured using calipers, three times weekly thereafter. Tumour volumes were calculated as 0.52a^2b, where a and b are the minor and major axes of the tumour, respectively. The arithmetic means were calculated for each time point, counting cured tumours as zero volume. The growth delay was determined as the difference in the number of days required for the control versus treated tumours to increase four times in volume. […]

[5] = test system: 6-methylhydroxylation of DMXAA; conditions: diclofenac 100 μM; mouse and human microsomes; cited from earlier work
[6] = test system: glucoronidation of DMXAA; conditions: diclofenac 100 μM; mouse and human microsomes; cited from earlier work
[7] = cited from earlier work

| SMILES | tumour blood flow [1] | tumour blood flow (dynamic MRI) [2] | AUC ([3]; mouse, plasma, ip, 0-6 hours, DMXAA 25 mg/kg i.p. alone or with diclofenac 5 mg/kg) [µM·h] | half-life ([3]; mouse, plasma, ip, DMXAA 25 mg/kg i.p. alone or with diclofenac 5 mg/kg) [h] | mice cured ([4]; s.c. colon 38 tumours, DMXAA 25 mg/kg alone or with diclofenac 5 mg/kg i.p., 5 mice per group) | inhibition of 6-methylhydroxylation of DMXAA [5] [%] | inhibition of glucoronidation of DMXAA [6] [%] | effect on DMXAA plasma concentrations ([3]; 3 hours after administration, DMXAA 25 mg/kg with diclofenac doses below 100 mg/kg) | increase in the plasma DMXAA AUC ([7]; diclofenac 100 mg/kg i.p., female mice) [%] | increase in DMXAA T1/2 ([7]; diclofenac 100 mg/kg i.p., male and female mice, P<0.05) | increase in the plasma DMXAA AUC ([7]; diclofenac 100 mg/kg i.p., male mice) [%] | increase in the plasma concentration and AUC of DMXAA ([7]; diclofenac 100 mg/kg, mice) | effect on the growth of colon 38 tumours ([4]; diclofenac alone 5 mg/kg i.p.) |
| --- | --- | --- | --- | --- | --- | --- | --- | --- | --- | --- | --- | --- | --- |
| Cc1ccc2c(=O)c3cccc(CC(=O)O)c3oc2c1C [DMXAA, 5,6-dimethylxanthenone-4-acetic acid] | prolonged inhibition of tumour blood flow | significant reduction in tumour blood flow | 1330 | 2.7 | none of the mice were cured; also recorded: no cure | – | – | – | – | – | – | – | – |
| O=C(O)Cc1ccccc1Nc1c(Cl)cccc1Cl [diclofenac, 2-[(2,6-dichlorophenyl)amino]benzeneacetic acid] | – | – | – | – | – | > 54 | > 70 | no significant effect | 31 | threefold increase | 24 | 24-31% | no significant effect |
